Earlier results in US7071337B2, “Benzoimidazole derivatives useful as antiproliferative agents” (Pfizer Inc, priority 2002, dated 2006).

Experiments:
[1] = tested on: another carcinoma that does not express the EGF receptor; settings: athymic nude mice
[2] = tested on: transplanted human mammary carcinoma that expresses epidermal growth factor receptor tyrosine kinase (EGFR); settings: athymic nude mice

In the case of `O=CN/C=C/c1cc(O)ccc1O` [erbstatin], the “growth of carcinoma not expressing the EGF receptor” value [1] is given as “without effect on the growth” and the “growth of transplanted human mammary carcinoma expressing EGFR” value [2] is given as “selectively attenuates the growth”.
